Test results taken from ChEMBL document CHEMBL5523723, “G Protein-Coupled Estrogen Receptor-Mediated Anti-Inflammatory and Mucosal Healing Activity of a Trimethylpyridinol Analogue in Inflammatory Bowel Disease” (J Med Chem, 2024).
Activity calls are given as the source filed them. The calls are words filed in the database; no cut-off is given here.

How the values were obtained:
[1] = Inhibition of IL6 induced adhesion of TPA treated human U-937 cells to human HT-29 cells at 1 uM pretreated with HT-29 for 1 hr followed by U-937 addition along with IL6 stimulation for 3 hrs by fluorescence based microplate reader assay relative to control; assay type: functional; conditions: time 4 hrs
U-937 [2] = assay: Inhibition of TNFalpha induced adhesion of TPA treated human U-937 cells to human HT-29 cells at 1 uM pretreated with HT-29 for 1 hr followed by U-937 addition along with TNFalpha stimulation for 3 hrs by fluorescence based microplate reader assay relative to control; assay type: functional; conditions: time 4 hrs
Rattus norvegicus [3] = assay: Antiinflammatory activity against TNBS-induced colitis in Sprague-Dawley rat model assessed as recovery of body weight at 300 mg/kg, po administered for 5 days; assay type: functional; conditions: time 5 day
Rattus norvegicus [4] = assay: Antiinflammatory activity against TNBS-induced colitis in Sprague-Dawley rat model assessed as recovery of colon weight at 300 mg/kg, po administered for 5 days; assay type: functional; conditions: time 5 day
Mus musculus [5] = assay: Antiinflammatory activity against DSS-induced chronic colitis in C57BL/6N/Crl mouse model assessed as recovery of body weight at 300 mg/kg, po administered daily 6 days per week for 5 weeks; assay type: functional
Mus musculus [6] = assay: Antiinflammatory activity against DSS-induced chronic colitis in C57BL/6N/Crl mouse model assessed as recovery of colon weight at 300 mg/kg, po administered daily 6 days per week for 5 weeks; assay type: functional
HT-29 [7] = assay: Induction of apoptosis in human HT-29 cells assessed as necrotic cells at 5 uM incubated for 24 hrs by Annexin V FITC/PI staining based flow cytometry analysis ( Rvb = 0.2%); assay type: functional
HT-29 [8] = assay: Induction of apoptosis in human HT-29 cells assessed as early apoptotic cells at 10 uM incubated for 24 hrs by Annexin V FITC/PI staining based flow cytometry analysis ( Rvb = 0%); assay type: functional
HT-29 [9] = assay: Induction of apoptosis in human HT-29 cells assessed as necrotic cells at 1 uM incubated for 24 hrs by Annexin V FITC/PI staining based flow cytometry analysis ( Rvb = 0.2%); assay type: functional
U-937 [10] = assay: Induction of apoptosis in human U-937 cells assessed as viable cells at 1 uM incubated for 24 hrs by Annexin V FITC/PI staining based flow cytometry analysis ( Rvb = 95.2 +/- 0.4%); assay type: functional; conditions: read-out: Activity
HT-29 [11] = assay: Induction of apoptosis in human HT-29 cells assessed as early apoptotic cells at 1 uM incubated for 24 hrs by Annexin V FITC/PI staining based flow cytometry analysis ( Rvb = 0%); assay type: functional
U-937 [12] = assay: Induction of apoptosis in human U-937 cells assessed as viable cells at 5 uM incubated for 24 hrs by Annexin V FITC/PI staining based flow cytometry analysis ( Rvb = 95.2 +/- 0.4%); assay type: functional; conditions: read-out: Activity
U-937 [13] = assay: Induction of apoptosis in human U-937 cells assessed as necrotic cells at 10 uM incubated for 24 hrs by Annexin V FITC/PI staining based flow cytometry analysis( Rvb = 0.2 +/- 0.1%); assay type: functional
HT-29 [14] = assay: Induction of apoptosis in human HT-29 cells assessed as viable cells at 1 uM incubated for 24 hrs by Annexin V FITC/PI staining based flow cytometry analysis ( Rvb = 99 +/- 0.1%); assay type: functional; conditions: read-out: Activity
HT-29 [15] = assay: Induction of apoptosis in human HT-29 cells assessed as viable cells at 5 uM incubated for 24 hrs by Annexin V FITC/PI staining based flow cytometry analysis ( Rvb = 99 +/- 0.1%); assay type: functional; conditions: read-out: Activity
U-937 [16] = assay: Induction of apoptosis in human U-937 cells assessed as viable cells at 10 uM incubated for 24 hrs by Annexin V FITC/PI staining based flow cytometry analysis ( Rvb = 95.2 +/- 0.4%); assay type: functional; conditions: read-out: Activity
HT-29 [17] = assay: Induction of apoptosis in human HT-29 cells assessed as viable cells at 10 uM incubated for 24 hrs by Annexin V FITC/PI staining based flow cytometry analysis ( Rvb = 99 +/- 0.1%); assay type: functional; conditions: read-out: Activity
U-937 [18] = assay: Induction of apoptosis in human U-937 cells assessed as early apoptotic cells at 10 uM incubated for 24 hrs by Annexin V FITC/PI staining based flow cytometry analysis ( Rvb = 0.6 +/- 0.1 %); assay type: functional
HT-29 [19] = assay: Induction of apoptosis in human HT-29 cells assessed as late apoptotic cells at 10 uM incubated for 24 hrs by Annexin V FITC/PI staining based flow cytometry analysis ( Rvb = 0.7%); assay type: functional
HT-29 [20] = assay: (§1) Mucosal healing effect in TNFalpha induced human HT-29 cells assessed as decrease in epithelial permeability by measuring reduced […] FITC-dextran 4 level at 10 uM pretreated with compound and G15 for 3 hrs followed by TNFalpha addition and subsequent FD4 addition and measured after 2 hrs by fluorescence based assay; assay type: functional, cell-based; conditions: time 5.0 hrs
HT-29 [21] = assay: as §1, with “at 0.1 to” for “at”, “pretreated” for “pretreated with compound and G15”; assay type: functional, cell-based; conditions: dose 0.1-10 µM, time 5.0 hrs
U-937 [22] = assay: Induction of apoptosis in human U-937 cells assessed as late apoptotic cells at 1 uM incubated for 24 hrs by Annexin V FITC/PI staining based flow cytometry analysis ( Rvb = 4 +/- 0.2%); assay type: functional
HT-29 [23] = assay: Induction of apoptosis in human HT-29 cells assessed as early apoptotic cells at 5 uM incubated for 24 hrs by Annexin V FITC/PI staining based flow cytometry analysis ( Rvb = 0%); assay type: functional
HT-29 [24] = assay: Induction of apoptosis in human HT-29 cells assessed as necrotic cells at 10 uM incubated for 24 hrs by Annexin V FITC/PI staining based flow cytometry analysis ( Rvb = 0.2%); assay type: functional
HT-29 [25] = assay: Induction of apoptosis in human HT-29 cells assessed as late apoptotic cells at 5 uM incubated for 24 hrs by Annexin V FITC/PI staining based flow cytometry analysis ( Rvb = 0.7%); assay type: functional
U-937 [26] = assay: Induction of apoptosis in human U-937 cells assessed as early apoptotic cells at 1 uM incubated for 24 hrs by Annexin V FITC/PI staining based flow cytometry analysis ( Rvb = 0.6 +/- 0.1 %); assay type: functional
U-937 [27] = assay: Induction of apoptosis in human U-937 cells assessed as late apoptotic cells at 5 uM incubated for 24 hrs by Annexin V FITC/PI staining based flow cytometry analysis ( Rvb = 4 +/- 0.2%); assay type: functional
U-937 [28] = assay: Induction of apoptosis in human U-937 cells assessed as necrotic cells at 5 uM incubated for 24 hrs by Annexin V FITC/PI staining based flow cytometry analysis ( Rvb = 0.2 +/- 0.1%); assay type: functional
HT-29 [29] = assay: Induction of apoptosis in human HT-29 cells assessed as late apoptotic cells at 1 uM incubated for 24 hrs by Annexin V FITC/PI staining based flow cytometry analysis ( Rvb = 0.7%); assay type: functional
U-937 [30] = assay: Induction of apoptosis in human U-937 cells assessed as necrotic cells at 1 uM incubated for 24 hrs by Annexin V FITC/PI staining based flow cytometry analysis ( Rvb = 0.2 +/- 0.1%); assay type: functional
U-937 [31] = assay: Induction of apoptosis in human U-937 cells assessed as late apoptotic cells at 10 uM incubated for 24 hrs by Annexin V FITC/PI staining based flow cytometry analysis ( Rvb = 4 +/- 0.2%); assay type: functional
U-937 [32] = assay: Induction of apoptosis in human U-937 cells assessed as early apoptotic cells at 5 uM incubated for 24 hrs by Annexin V FITC/PI staining based flow cytometry analysis ( Rvb = 0.6 +/- 0.1 %); assay type: functional
Mus musculus [33] = assay: Antiinflammatory activity against DSS-induced chronic colitis in C57BL/6N/Crl mouse model assessed as recovery of colon weight at 30 mg/kg, po administered daily 6 days per week for 5 weeks
Mus musculus [34] = assay: Antiinflammatory activity against DSS-induced chronic colitis in C57BL/6N/Crl mouse model assessed as recovery of body weight at 30 mg/kg, po administered daily 6 days per week for 5 weeks

## Cc1ccc2c(Cl)c(C(=O)Nc3nc(C)c(O)c(C)c3C)sc2c1
[1]
  inhibition at 1 µM: 8.7%

## Cc1ccccc1C(=O)Nc1nc(C)c(O)c(C)c1C
U-937 [2]
  inhibition at 1 µM: 47.3%
[1]
  inhibition at 1 µM: 41.5%

## Cc1cccc(C(=O)Nc2nc(C)c(O)c(C)c2C)c1
U-937 [2]
  inhibition at 1 µM: 63.9%
[1]
  inhibition at 1 µM: 48.9%

## O=C(O)c1cc(/N=N/c2ccc(S(=O)(=O)Nc3ccccn3)cc2)ccc1O [SULFASALAZINE]
Rattus norvegicus [3]
  Activity: 58.3%
Rattus norvegicus [4]
  Activity: 78.4%
Mus musculus [5]
  Activity: 22.8%
Mus musculus [6]
  Activity: 66.9%

## Cc1nc(NC(=O)c2c(C)noc2C)c(C)c(C)c1O
U-937 [2]
  inhibition at 1 µM: 85%
[1]
  inhibition at 1 µM: 74%

## Cc1nc(NC(=O)c2ccc(-c3cc(Cl)ccc3Cl)o2)c(C)c(C)c1O
U-937 [2]
  inhibition at 1 µM: 78.2%
[1]
  inhibition at 1 µM: 69.6%

## Cc1nc(NC(=O)c2ccoc2)c(C)c(C)c1O
U-937 [2]
  inhibition at 1 µM: 60.3%
[1]
  inhibition at 1 µM: 54.1%

## Cc1nc(NC(=O)c2ccsc2)c(C)c(C)c1O
U-937 [2]
  inhibition at 1 µM: 11.5%
[1]
  inhibition at 1 µM: 19.3%

## Cc1nc(NC(=O)c2cccs2)c(C)c(C)c1O
[1]
  inhibition at 1 µM: 61.6%

## Brc1cc2c(cc1[C@@H]1Nc3ccccc3[C@@H]3C=CC[C@@H]31)OCO2
HT-29 [7]
  Activity: 1.6%
HT-29 [8]
  Activity: 2.4%
HT-29 [9]
  Activity: 1.6%
U-937 [10]
  viability at 1 µM: 79.6%
HT-29 [11]
  Activity: 1.6%
U-937 [12]
  viability at 5 µM: 74.6%
U-937 [13]
  Activity: 0.3%
HT-29 [14]
  viability at 1 µM: 86.4%
HT-29 [15]
  viability at 5 µM: 84.2%
U-937 [16]
  viability at 10 µM: 65.7%
HT-29 [17]
  viability at 10 µM: 79.7%
U-937 [18]
  Activity: 6.2%
HT-29 [19]
  Activity: 17.1%
HT-29 [20]
  Activity: inactive
HT-29 [21]
  Activity: inactive
U-937 [22]
  Activity: 13.1%
HT-29 [23]
  Activity: 1%
HT-29 [24]
  Activity: 0.7%
HT-29 [25]
  Activity: 13.1%
U-937 [26]
  Activity: 6.8%
U-937 [27]
  Activity: 18.3%
U-937 [28]
  Activity: 0.7%
HT-29 [29]
  Activity: 10.4%
U-937 [30]
  Activity: 0.5%
U-937 [31]
  Activity: 27.9%
U-937 [32]
  Activity: 6.5%

## Cc1nc(NC(=O)c2cccc(F)c2)c(C)c(C)c1O
U-937 [2]
  inhibition at 1 µM: 54.1%
[1]
  inhibition at 1 µM: 44.2%

## Cc1nc(NC(=O)c2ccc3ccccc3c2)c(C)c(C)c1O
U-937 [2]
  inhibition at 1 µM: 42.9%
[1]
  inhibition at 1 µM: 33.1%

## C[C@@H]1CCN(C(=O)CC#N)C[C@@H]1N(C)c1ncnc2[nH]ccc12 [TOFACITINIB]
Mus musculus [33]
  Activity: 68.2%
Mus musculus [34]
  Activity: 29.5%

## Nc1ccc(O)c(C(=O)O)c1 [MESALAMINE]
U-937 [2]
  inhibition at 1 µM: 9.9%
[1]
  inhibition at 1 µM: 1.7%

## Cc1nc(NC(=O)c2ccccc2)c(C)c(C)c1O
[1]
  inhibition at 1 µM: 44.1%
